Where two headings read alike, the source gives them in different places.
What was measured:
Experiment in all cases: Glasshouse assay for herbicidal activity (pre- and post-emergence), percentage phytotoxicity
Format in all cases: in vivo
[1] = tested on: Echinochloa crus-galli (ECHCG); details: Echinochloa crus-galli
In short: (§1)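 Visually rated damage, 0–100%. PRE spray 1 d after sowing, scored 20 DAA; POST spray ~12 d, scored 15 DAA. Glasshouse at 65% humidity, 16 h day.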

Avena fatua (AVEFA) = details: Avena fatua
In short: as §1

[2] = tested on: Alopecurus myosuroides (ALOMY); details: Alopecurus myosuroides
In short: as §1

Lolium perenne (LOLPE) = details: Lolium perenne
In short: as §1

[3] = post-emergence, 360 h, 250 g/ha, post-emergence, 15 DAA, visual assessment (100%=total damage, 0%=no damage), read-out: Post-emergence herbicidal activity (percentage phytotoxicity) ECHCG POST
[4] = pre-emergence, 480 h, 250 g/ha, pre-emergence, 20 DAA, visual assessment (100%=total damage, 0%=no damage), read-out: Pre-emergence herbicidal activity (percentage phytotoxicity) ECHCG PRE
[5] = post-emergence, 360 h, 250 g/ha, post-emergence, 15 DAA, visual assessment (100%=total damage, 0%=no damage), read-out: Post-emergence herbicidal activity (percentage phytotoxicity) AVEFA POST
[6] = pre-emergence, 480 h, 250 g/ha, pre-emergence, 20 DAA, visual assessment (100%=total damage, 0%=no damage), read-out: Pre-emergence herbicidal activity (percentage phytotoxicity) AVEFA PRE
[7] = post-emergence, 360 h, 250 g/ha, post-emergence, 15 DAA, visual assessment (100%=total damage, 0%=no damage), read-out: Post-emergence herbicidal activity (percentage phytotoxicity) ALOMY POST
[8] = pre-emergence, 480 h, 250 g/ha, pre-emergence, 20 DAA, visual assessment (100%=total damage, 0%=no damage), read-out: Pre-emergence herbicidal activity (percentage phytotoxicity) ALOMY PRE
[9] = post-emergence, 360 h, 250 g/ha, post-emergence, 15 DAA, visual assessment (100%=total damage, 0%=no damage), read-out: Post-emergence herbicidal activity (percentage phytotoxicity) LOLPE POST
[10] = pre-emergence, 480 h, 250 g/ha, pre-emergence, 20 DAA, visual assessment (100%=total damage, 0%=no damage), read-out: Pre-emergence herbicidal activity (percentage phytotoxicity) LOLPE PRE

Structure (SMILES): CC#Cc1cc(C)c(C2C(=O)CC(CC(=O)NCc3ccsc3)C2=O)c(C)c1 (stereo not shown) [Compound A55]
- pest or weed control at 250 g/ha ([1]; post-emergence, 360 h, Rate 250 g/ha, post-emergence, assessed visually 15 DAA, 100%=total damage, 0%=no damage, read-out: Post-emergence herbicidal activity (percentage phytotoxicity) ECHCG POST): 100%
- pest or weed control at 250 g/ha ([1]; pre-emergence, 480 h, Rate 250 g/ha, pre-emergence, assessed visually 20 DAA, 100%=total damage, 0%=no damage, read-out: Pre-emergence herbicidal activity (percentage phytotoxicity) ECHCG PRE): 100%
- pest or weed control at 250 g/ha (Avena fatua (AVEFA); post-emergence, 360 h, Rate 250 g/ha, post-emergence, assessed visually 15 DAA, 100%=total damage, 0%=no damage, read-out: Post-emergence herbicidal activity (percentage phytotoxicity) AVEFA POST): 100%
- pest or weed control at 250 g/ha (Avena fatua (AVEFA); pre-emergence, 480 h, Rate 250 g/ha, pre-emergence, assessed visually 20 DAA, 100%=total damage, 0%=no damage, read-out: Pre-emergence herbicidal activity (percentage phytotoxicity) AVEFA PRE): 80%
- pest or weed control at 250 g/ha ([2]; post-emergence, 360 h, Rate 250 g/ha, post-emergence, assessed visually 15 DAA, 100%=total damage, 0%=no damage, read-out: Post-emergence herbicidal activity (percentage phytotoxicity) ALOMY POST): 90%
- pest or weed control at 250 g/ha ([2]; pre-emergence, 480 h, Rate 250 g/ha, pre-emergence, assessed visually 20 DAA, 100%=total damage, 0%=no damage, read-out: Pre-emergence herbicidal activity (percentage phytotoxicity) ALOMY PRE): 90%
- pest or weed control at 250 g/ha (Lolium perenne (LOLPE); post-emergence, 360 h, Rate 250 g/ha, post-emergence, assessed visually 15 DAA, 100%=total damage, 0%=no damage, read-out: Post-emergence herbicidal activity (percentage phytotoxicity) LOLPE POST): 90%
- pest or weed control at 250 g/ha (Lolium perenne (LOLPE); pre-emergence, 480 h, Rate 250 g/ha, pre-emergence, assessed visually 20 DAA, 100%=total damage, 0%=no damage, read-out: Pre-emergence herbicidal activity (percentage phytotoxicity) LOLPE PRE): 90%

Structure (SMILES): C=C(Br)CNC(=O)CC1CC(=O)C(c2c(C)cc(C)cc2C)C1=O (stereo not shown) [Compound B102]
- pest or weed control at 250 g/ha [1, 3]: 60%
- pest or weed control at 250 g/ha [1, 4]: 80%
- pest or weed control at 250 g/ha (Avena fatua (AVEFA); [5]): 60%
- pest or weed control at 250 g/ha (Avena fatua (AVEFA); [6]): 0%
- pest or weed control at 250 g/ha [2, 7]: 60%
- pest or weed control at 250 g/ha [2, 8]: 60%
- pest or weed control at 250 g/ha (Lolium perenne (LOLPE); [9]): 90%
- pest or weed control at 250 g/ha (Lolium perenne (LOLPE); [10]): 100%

Structure (SMILES): Cc1cc(C)c(C2C(=O)CC(CC(=O)N[C@@H]3C[C@@H]3F)C2=O)c(C)c1 (stereo partly shown) [Compound B81]
- pest or weed control at 250 g/ha [1, 3]: 80%
- pest or weed control at 250 g/ha [1, 4]: 90%
- pest or weed control at 250 g/ha (Avena fatua (AVEFA); [5]): 90%
- pest or weed control at 250 g/ha (Avena fatua (AVEFA); [6]): 0%
- pest or weed control at 250 g/ha [2, 7]: 80%
- pest or weed control at 250 g/ha [2, 8]: 70%
- pest or weed control at 250 g/ha (Lolium perenne (LOLPE); [9]): 90%
- pest or weed control at 250 g/ha (Lolium perenne (LOLPE); [10]): 90%

Structure (SMILES): Cc1cc(-c2ccc(Cl)cn2)cc(C)c1C1C(=O)CC(CC(=O)NCc2cccc(Cl)c2)C1=O (stereo not shown) [Compound B374]
- pest or weed control at 250 g/ha ([1]; post-emergence, 360 h, Rate 250 g/ha, post-emergence, visual assessment 15 DAA, 100%=total damage, 0%=no damage, read-out: Post-emergence herbicidal activity (percentage phytotoxicity) ECHCG POST): 100%
- pest or weed control at 250 g/ha ([1]; pre-emergence, 480 h, Rate 250 g/ha, pre-emergence, visual assessment 20 DAA, 100%=total damage, 0%=no damage, read-out: Pre-emergence herbicidal activity (percentage phytotoxicity) ECHCG PRE): 90%
- pest or weed control at 250 g/ha (Avena fatua (AVEFA); post-emergence, 360 h, Rate 250 g/ha, post-emergence, visual assessment 15 DAA, 100%=total damage, 0%=no damage, read-out: Post-emergence herbicidal activity (percentage phytotoxicity) AVEFA POST): 100%
- pest or weed control at 250 g/ha (Avena fatua (AVEFA); pre-emergence, 480 h, Rate 250 g/ha, pre-emergence, visual assessment 20 DAA, 100%=total damage, 0%=no damage, read-out: Pre-emergence herbicidal activity (percentage phytotoxicity) AVEFA PRE): 90%
- pest or weed control at 250 g/ha ([2]; post-emergence, 360 h, Rate 250 g/ha, post-emergence, visual assessment 15 DAA, 100%=total damage, 0%=no damage, read-out: Post-emergence herbicidal activity (percentage phytotoxicity) ALOMY POST): 90%
- pest or weed control at 250 g/ha ([2]; pre-emergence, 480 h, Rate 250 g/ha, pre-emergence, visual assessment 20 DAA, 100%=total damage, 0%=no damage, read-out: Pre-emergence herbicidal activity (percentage phytotoxicity) ALOMY PRE): 70%
- pest or weed control at 250 g/ha (Lolium perenne (LOLPE); post-emergence, 360 h, Rate 250 g/ha, post-emergence, visual assessment 15 DAA, 100%=total damage, 0%=no damage, read-out: Post-emergence herbicidal activity (percentage phytotoxicity) LOLPE POST): 90%
- pest or weed control at 250 g/ha (Lolium perenne (LOLPE); pre-emergence, 480 h, Rate 250 g/ha, pre-emergence, visual assessment 20 DAA, 100%=total damage, 0%=no damage, read-out: Pre-emergence herbicidal activity (percentage phytotoxicity) LOLPE PRE): 90%

Structure (SMILES): C=CC(C)NC(=O)CC1CC(=O)C(c2c(C)cc(Br)cc2C)C1=O (stereo not shown) [Compound B301]
- pest or weed control at 250 g/ha ([1]; post-emergence, 360 h, POST-emergence, rate 250 g/ha, visual score 15 DAA (100%=total damage, 0%=no damage), read-out: Post-emergence herbicidal activity (percentage phytotoxicity) ECHCG POST): 70%
- pest or weed control at 250 g/ha ([1]; pre-emergence, 480 h, PRE-emergence, rate 250 g/ha, visual score 20 DAA (100%=total damage, 0%=no damage), read-out: Pre-emergence herbicidal activity (percentage phytotoxicity) ECHCG PRE): 60%
- pest or weed control at 250 g/ha (Avena fatua (AVEFA); post-emergence, 360 h, POST-emergence, rate 250 g/ha, visual score 15 DAA (100%=total damage, 0%=no damage), read-out: Post-emergence herbicidal activity (percentage phytotoxicity) AVEFA POST): 70%
- pest or weed control at 250 g/ha (Avena fatua (AVEFA); pre-emergence, 480 h, PRE-emergence, rate 250 g/ha, visual score 20 DAA (100%=total damage, 0%=no damage), read-out: Pre-emergence herbicidal activity (percentage phytotoxicity) AVEFA PRE): 50%
- pest or weed control at 250 g/ha ([2]; post-emergence, 360 h, POST-emergence, rate 250 g/ha, visual score 15 DAA (100%=total damage, 0%=no damage), read-out: Post-emergence herbicidal activity (percentage phytotoxicity) ALOMY POST): 70%
- pest or weed control at 250 g/ha ([2]; pre-emergence, 480 h, PRE-emergence, rate 250 g/ha, visual score 20 DAA (100%=total damage, 0%=no damage), read-out: Pre-emergence herbicidal activity (percentage phytotoxicity) ALOMY PRE): 80%
- pest or weed control at 250 g/ha (Lolium perenne (LOLPE); post-emergence, 360 h, POST-emergence, rate 250 g/ha, visual score 15 DAA (100%=total damage, 0%=no damage), read-out: Post-emergence herbicidal activity (percentage phytotoxicity) LOLPE POST): 50%
- pest or weed control at 250 g/ha (Lolium perenne (LOLPE); pre-emergence, 480 h, PRE-emergence, rate 250 g/ha, visual score 20 DAA (100%=total damage, 0%=no damage), read-out: Pre-emergence herbicidal activity (percentage phytotoxicity) LOLPE PRE): 70%

Source: patent publication US10206394B2, “Herbicidal compounds” (Syngenta Participations AG, priority 2014, dated 2019)
